Source: patent publication US20140005174A1, “INDOLE DERIVATIVES USEFUL AS CCR2 ANTAGONISTS” (priority 2011, published 2014)
pIC50: −log10 of the molar value.

target: T1, human CCR2 (Homo sapiens, UniProt P41597); test: CCR2 Membrane Binding Assay (SPA radio-ligand binding, 125I-rhMCP-1); conditions: membranes from Ba/F3 cells transfected with human CCR2; 0.03 nM 125I-rhMCP-1; 4 h room temperature
T1 construct: expressed in transfected cells; host or cells: Ba/F3 cells (membranes)
Procedure: The radio-ligand binding assay was done using scintillation proximity assay (SPA) technology. Briefly, membranes (1 μg per assay point) from Ba/F3 cells transfected with human CCR2, and wheat germ agglutinin-coated SPA beads (80 μg per point; Amersham, Arlington Heights,Ill.), were pre-incubated for 30 min at room temperature in CCR2 buffer (50 mM HEPES (pH=7.4), 10 mM MgCl2, 10 mM NaCl, 1 mM CaCL2, 0.1% BSA,10 μg/ml Saponin). At this point pre-bound SPA bead, membrane complex was incubated at room temperature for 4 h with varying concentrations of punitive CCR2 antagonists (in 1% DMSO, final) and 0.03 nM ^125I-rhMCP-1 in CCR2 Buffer (S.A. 2200 Ci/mmol, PerkinElmer Life and Analytical Science, Boston, Mass.; NEX332). Binding competition was measured using a 1450 Microbeta Trilux counter(Wallac, Gaithersburg, Md.). Binding constants (IC50 and slope) were calculated using GraphPad Prism software(GraphPad Software, Inc., La Jolla Calif.).

T1 sequence (P41597 whole entry): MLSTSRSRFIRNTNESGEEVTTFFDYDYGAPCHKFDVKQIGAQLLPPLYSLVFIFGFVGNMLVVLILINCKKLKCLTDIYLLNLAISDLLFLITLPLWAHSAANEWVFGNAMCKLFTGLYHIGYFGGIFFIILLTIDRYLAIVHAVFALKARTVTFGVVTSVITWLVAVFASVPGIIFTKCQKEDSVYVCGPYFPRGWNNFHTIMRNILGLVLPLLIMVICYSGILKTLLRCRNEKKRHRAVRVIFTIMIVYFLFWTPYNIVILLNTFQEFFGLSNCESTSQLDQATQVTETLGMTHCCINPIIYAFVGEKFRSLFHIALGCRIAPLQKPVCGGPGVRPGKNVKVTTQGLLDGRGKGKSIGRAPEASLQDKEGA

Row | pIC50 | SMILES
1 | 7.89 | O=C(NC1CCN(CCN2CCCCCC2)CC1)c1cc2c(ccc3cc(-c4ccccc4)oc32)[nH]1 [Compound 17]
2 | 8.40 | CC(C)COc1cccc2[nH]c(C(=O)NC3CCN(CCN4CCCCCC4)CC3)cc12 [Compound 10]
3 | 8.27 | CC(C)c1cc2ccc3[nH]c(C(=O)NC4CCN(CCN5CCCCCC5)CC4)cc3c2o1 [Compound 2]
4 | 7.90 | O=C(NC1CCN(CCN2CCCCCC2)CC1)c1cc2c(OCc3ccccc3)cccc2[nH]1 [Compound 14]
5 | 7.40 | CC(C)COc1cc2c(c3[nH]c(C(=O)NC4CCN(CCN5CCCCCC5)CC4)cc13)CCC2 [Compound 16]

same assay, conditions: membranes from Ba/F3 cells transfected with human CCR2; 0.03 nM 125I-rhMCP-1; class symbols

Row | SMILES | pIC50
6 | Cc1cc2ccc3[nH]c(C(=O)NC4CCN(CCN5CCCCCC5)CC4)cc3c2o1 [Compound 5] | 6.70 to 7.29
7 | CC(C)c1cc2ccc3[nH]c(C(=O)N[C@H]4[C@@H]5CN(CCN6CCCCCC6)C[C@@H]54)cc3c2o1 [Compound 3] | 6.70 to 7.29
8 | Cc1c(C(=O)NC2CCN(CCN3CCCCCC3)CC2)[nH]c2ccc3ccccc3c12 [Compound 8] | 6.05 to 6.70
9 | O=C(NC1CCN(CCN2CCCCCC2)CC1)c1cc2c(cc(F)c3ccoc32)[nH]1 [Compound 6] | 6.05 to 6.70
10 | O=C(NC1CCN(CCN2CCCCCC2)CC1)c1cc2c3c(c(F)cc2[nH]1)CCO3 [Compound 7] | 6.05 to 6.70
11 | O=C(NC1CCN(CCN2CCCCCC2)CC1)c1cc2c(cc(F)c3ccccc32)[nH]1 [Compound 9] | 6.70 to 7.29
12 | O=C(NC1CCN(CCN2CCCCCC2)CC1)c1cc2c(ccc3ccccc32)[nH]1 [Compound 4] | 6.70 to 7.29

The next lines start with the values.

Row | pIC50 | SMILES
13 | 6.05 to 6.70 | O=C(NC1CCN(CCN2CCCCCC2)CC1)c1cc2c3ccccc3ccc2n1Cc1ccccc1 [Compound 18]
14 | 6.05 to 6.70 | COc1cccc2[nH]c(C(=O)NC3CCN(CCN4CCCCCC4)CC3)cc12 [Compound 12]
15 | 6.05 to 6.70 | O=C(NC1CCN(CCN2CCCCC2)CC1)c1cc2c(cc(F)c3ccoc32)[nH]1 [Compound 13]
16 | 6.05 to 6.70 | COc1cc2[nH]c(C(=O)NC3CCN(CCN4CCCCCC4)CC3)cc2c2ccccc12 [Compound 11]
17 | 6.70 to 7.29 | CC(C)c1cc2ccc3[nH]c(C(=O)NC4CC45CCN(CCN4CCCCCC4)CC5)cc3c2o1 (stereo not shown) [Compound 15]
18 | 6.70 to 7.29 | O=C(NC1[C@H]2CN(CCN3CCCCCC3)C[C@@H]12)c1cc2c(ccc3cc(-c4ccccc4)oc32)[nH]1 (stereo partly shown) [Compound 19]
19 | 6.70 to 7.29 | CCOc1cc2[nH]c(C(=O)NC3CCN(CCN4CCCCCC4)CC3)cc2c2ccccc12 [Compound 20]
